Assay [1] deals with Beta-1 adrenergic receptor (Rattus norvegicus, UniProt P18090). Briefly: biochemical.
Description: Tested for binding affinity against beta-1 adrenergic receptor in rat brain using [3H]-CGP- 26505 as radioligand
For assay [2], the target named is T1, Adrenergic receptor alpha-2 (UniProt P08913+P18825+P18089). The conditions noted are these: Cavia porcellus; Ileum.
Description: Intrinsic activity against alpha-2 receptor in isolated guinea pig ileum
Assay [3] concerns the target Beta-1 adrenergic receptor (Cavia porcellus, UniProt B0FL73).
Description: (§1) Inhibitory activity against beta-1 adrenergic receptor in guinea pig atria is determined
The target of assay [4] is Beta-2 adrenergic receptor (Cavia porcellus, UniProt Q8K4Z4). Briefly: Inhibitory activity against beta-2 adrenergic receptor in guinea pig tracheal strip is determined.
Chain of Beta-2 adrenergic receptor (Cavia porcellus, UniProt Q8K4Z4) (Q8K4Z4 whole entry): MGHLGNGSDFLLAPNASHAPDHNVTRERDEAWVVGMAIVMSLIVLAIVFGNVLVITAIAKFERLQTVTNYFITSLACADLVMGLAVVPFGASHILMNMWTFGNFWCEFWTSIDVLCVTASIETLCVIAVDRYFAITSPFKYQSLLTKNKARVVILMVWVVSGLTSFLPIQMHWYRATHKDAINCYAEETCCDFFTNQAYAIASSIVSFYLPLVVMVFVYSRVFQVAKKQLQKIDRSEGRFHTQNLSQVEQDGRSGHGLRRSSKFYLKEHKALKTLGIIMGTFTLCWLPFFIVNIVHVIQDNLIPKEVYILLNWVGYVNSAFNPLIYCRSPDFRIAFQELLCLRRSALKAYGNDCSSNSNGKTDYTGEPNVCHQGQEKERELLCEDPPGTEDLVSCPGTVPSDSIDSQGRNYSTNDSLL
Assay [5] addresses Beta-2 adrenergic receptor (Bos taurus, UniProt Q28044). Briefly: Tested for binding affinity against beta-2 adrenergic receptor in bovine lung using [3H]DHA as radioligand.
The target in assay [6] is T1, Adrenergic receptor alpha-2. The conditions noted are these: Cavia porcellus; Ileum. The source holds these as a separate data set.
Description: Tested for alpha adrenergic activity against alpha-2 receptor from isolated guinea pig ileum
Assay [7] has as its target T2, Adrenergic receptor alpha-1 (Rattus norvegicus, UniProt P15823+P23944+P43140).
T2 sequence (P15823 whole entry): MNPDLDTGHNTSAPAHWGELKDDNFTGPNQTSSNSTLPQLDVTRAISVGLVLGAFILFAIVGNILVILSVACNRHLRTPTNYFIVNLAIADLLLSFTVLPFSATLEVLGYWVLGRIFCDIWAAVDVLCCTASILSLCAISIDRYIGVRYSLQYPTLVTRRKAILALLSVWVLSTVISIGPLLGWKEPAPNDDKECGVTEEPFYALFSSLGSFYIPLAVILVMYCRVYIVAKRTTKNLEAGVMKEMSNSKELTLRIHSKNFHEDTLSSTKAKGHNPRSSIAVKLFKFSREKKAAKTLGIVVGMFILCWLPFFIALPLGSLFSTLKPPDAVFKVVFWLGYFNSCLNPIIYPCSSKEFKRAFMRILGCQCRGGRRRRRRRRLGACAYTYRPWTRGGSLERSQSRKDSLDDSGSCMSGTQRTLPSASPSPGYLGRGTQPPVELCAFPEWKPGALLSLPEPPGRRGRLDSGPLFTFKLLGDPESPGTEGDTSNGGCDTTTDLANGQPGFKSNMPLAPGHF
T2 sequence (P23944 whole entry): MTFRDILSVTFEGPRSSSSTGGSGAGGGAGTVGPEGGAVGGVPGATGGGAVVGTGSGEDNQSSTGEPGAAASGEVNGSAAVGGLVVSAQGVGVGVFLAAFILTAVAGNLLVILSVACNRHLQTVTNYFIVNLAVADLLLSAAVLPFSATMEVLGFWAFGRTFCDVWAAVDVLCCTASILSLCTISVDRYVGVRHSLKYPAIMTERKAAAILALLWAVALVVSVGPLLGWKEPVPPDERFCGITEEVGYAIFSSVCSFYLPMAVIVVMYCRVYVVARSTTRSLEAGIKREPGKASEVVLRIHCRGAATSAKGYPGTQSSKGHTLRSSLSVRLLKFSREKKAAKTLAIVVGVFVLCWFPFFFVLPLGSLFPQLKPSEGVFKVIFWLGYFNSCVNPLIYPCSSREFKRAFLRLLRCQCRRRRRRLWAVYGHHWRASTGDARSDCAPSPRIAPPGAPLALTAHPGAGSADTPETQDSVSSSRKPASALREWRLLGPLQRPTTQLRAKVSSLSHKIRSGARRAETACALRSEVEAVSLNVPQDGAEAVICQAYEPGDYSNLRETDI
T2 sequence (P43140 whole entry): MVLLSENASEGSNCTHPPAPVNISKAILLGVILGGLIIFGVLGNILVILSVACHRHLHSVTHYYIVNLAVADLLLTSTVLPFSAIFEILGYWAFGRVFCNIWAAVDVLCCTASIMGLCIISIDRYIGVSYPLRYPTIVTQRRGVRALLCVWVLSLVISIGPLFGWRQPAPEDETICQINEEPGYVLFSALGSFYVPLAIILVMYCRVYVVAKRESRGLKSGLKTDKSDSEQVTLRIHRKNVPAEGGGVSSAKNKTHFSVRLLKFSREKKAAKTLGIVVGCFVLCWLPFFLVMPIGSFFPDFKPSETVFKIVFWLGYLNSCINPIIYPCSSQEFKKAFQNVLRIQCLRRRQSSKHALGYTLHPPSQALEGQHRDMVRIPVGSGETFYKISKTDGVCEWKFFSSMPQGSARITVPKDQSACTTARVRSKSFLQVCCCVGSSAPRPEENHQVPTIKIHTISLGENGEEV

The target in assay [8] is T3, Adrenergic receptor alpha-2 (Rattus norvegicus, UniProt P22086+P19328+P22909).
T3 sequence (P22086 whole entry): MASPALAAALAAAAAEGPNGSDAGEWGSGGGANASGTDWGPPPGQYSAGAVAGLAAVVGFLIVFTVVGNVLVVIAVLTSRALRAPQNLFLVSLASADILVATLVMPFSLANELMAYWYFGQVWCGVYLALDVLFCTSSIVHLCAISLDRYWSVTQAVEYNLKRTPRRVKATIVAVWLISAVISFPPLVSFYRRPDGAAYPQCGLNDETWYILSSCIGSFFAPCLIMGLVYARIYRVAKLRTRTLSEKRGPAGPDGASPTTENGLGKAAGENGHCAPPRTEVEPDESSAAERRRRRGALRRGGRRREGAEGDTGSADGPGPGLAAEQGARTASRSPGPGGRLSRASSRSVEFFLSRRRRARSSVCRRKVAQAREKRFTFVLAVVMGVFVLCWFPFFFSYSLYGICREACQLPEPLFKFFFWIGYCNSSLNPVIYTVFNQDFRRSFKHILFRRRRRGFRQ
T3 sequence (P19328 whole entry): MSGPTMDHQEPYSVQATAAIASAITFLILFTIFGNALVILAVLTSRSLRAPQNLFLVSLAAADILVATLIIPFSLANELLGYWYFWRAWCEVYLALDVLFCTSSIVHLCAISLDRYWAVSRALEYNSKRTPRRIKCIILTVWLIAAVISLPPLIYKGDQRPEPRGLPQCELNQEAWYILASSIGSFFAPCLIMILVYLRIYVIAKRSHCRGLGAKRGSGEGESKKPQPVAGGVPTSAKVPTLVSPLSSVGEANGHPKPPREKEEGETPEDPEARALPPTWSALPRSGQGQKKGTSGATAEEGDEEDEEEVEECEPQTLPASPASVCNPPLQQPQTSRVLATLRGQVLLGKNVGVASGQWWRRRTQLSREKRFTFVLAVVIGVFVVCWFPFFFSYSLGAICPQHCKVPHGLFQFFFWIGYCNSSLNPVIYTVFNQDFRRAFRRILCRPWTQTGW
T3 sequence (P22909 whole entry): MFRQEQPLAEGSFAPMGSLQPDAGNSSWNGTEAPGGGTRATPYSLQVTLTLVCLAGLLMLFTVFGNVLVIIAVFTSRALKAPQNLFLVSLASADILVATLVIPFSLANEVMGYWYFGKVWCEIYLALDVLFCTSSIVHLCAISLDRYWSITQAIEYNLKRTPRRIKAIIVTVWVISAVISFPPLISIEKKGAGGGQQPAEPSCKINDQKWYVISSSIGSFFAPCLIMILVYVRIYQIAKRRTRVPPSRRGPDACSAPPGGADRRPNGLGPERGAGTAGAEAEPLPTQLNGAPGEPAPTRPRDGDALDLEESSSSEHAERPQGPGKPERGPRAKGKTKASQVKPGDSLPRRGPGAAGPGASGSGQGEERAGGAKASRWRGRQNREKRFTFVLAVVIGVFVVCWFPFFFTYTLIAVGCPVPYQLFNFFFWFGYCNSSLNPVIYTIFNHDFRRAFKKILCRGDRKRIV

Assay [9] deals with T4, Adrenergic receptor alpha-1 (Rattus norvegicus) (UniProt P15823+P23944+P43140). Briefly: Intrinsic activity against alpha-1 receptor in isolated rat vas deferens. It is filed as tissue-based.
Assay [10] addresses T4, Adrenergic receptor alpha-1 (Rattus norvegicus). Briefly: Tested for alpha adrenergic activity against alpha-1 receptor from isolated rat vas deferens. It is filed as tissue-based.
In assay [11] the target is Beta-1 adrenergic receptor (Cavia porcellus) (UniProt B0FL73).
Chain of Beta-1 adrenergic receptor (Cavia porcellus) (B0FL73 1-467): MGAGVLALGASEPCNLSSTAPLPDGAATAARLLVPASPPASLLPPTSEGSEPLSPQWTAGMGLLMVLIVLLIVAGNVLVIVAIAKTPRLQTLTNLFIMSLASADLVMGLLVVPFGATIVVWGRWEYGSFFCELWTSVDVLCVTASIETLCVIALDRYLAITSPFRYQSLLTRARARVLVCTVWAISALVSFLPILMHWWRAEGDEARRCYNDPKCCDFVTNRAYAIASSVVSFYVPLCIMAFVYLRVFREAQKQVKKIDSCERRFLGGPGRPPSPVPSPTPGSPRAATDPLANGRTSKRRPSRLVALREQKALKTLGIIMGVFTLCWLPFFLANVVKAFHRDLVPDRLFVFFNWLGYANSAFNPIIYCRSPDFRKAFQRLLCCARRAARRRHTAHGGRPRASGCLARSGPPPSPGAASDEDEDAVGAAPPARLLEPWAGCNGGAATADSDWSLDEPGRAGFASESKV
Description: as §1
For assay [12] the target is unchanged. Briefly: Intrinsic activity against beta-1 receptor in isolated guinea pig atria.
Assay [13] has as its target Beta-2 adrenergic receptor (Cavia porcellus) (UniProt Q8K4Z4).
Assay [14] shares this target. The source holds these as a separate data set.
The target of assay [15] is T2, Adrenergic receptor alpha-1. Briefly: -log IC50 value against alpha-1 receptor in rat vas deferens. It is filed as tissue-based.

Molecules are shown by their SMILES.

For orientation: Ki means a measure of affinity in units of concentration, obtained from inhibition or displacement. Low values mean higher affinity, high ones lower affinity. The IC50 is the midpoint of a concentration-inhibition curve. A low value points to inhibition by little substance.

Chain of Beta-1 adrenergic receptor (Rattus norvegicus, UniProt P18090) (P18090 whole entry): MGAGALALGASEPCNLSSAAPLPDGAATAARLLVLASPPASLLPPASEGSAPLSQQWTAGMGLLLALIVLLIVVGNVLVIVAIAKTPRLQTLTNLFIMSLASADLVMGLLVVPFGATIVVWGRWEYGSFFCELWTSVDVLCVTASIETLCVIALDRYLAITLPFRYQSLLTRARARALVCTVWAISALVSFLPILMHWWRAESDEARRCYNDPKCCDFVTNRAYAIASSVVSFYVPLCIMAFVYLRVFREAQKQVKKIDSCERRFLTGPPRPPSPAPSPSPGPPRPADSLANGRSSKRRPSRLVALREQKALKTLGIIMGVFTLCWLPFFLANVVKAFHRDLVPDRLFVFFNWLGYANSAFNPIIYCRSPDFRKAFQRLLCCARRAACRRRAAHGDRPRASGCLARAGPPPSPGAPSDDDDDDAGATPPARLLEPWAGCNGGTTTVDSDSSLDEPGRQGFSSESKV
Chain of Beta-2 adrenergic receptor (Cavia porcellus) (Q8K4Z4 whole entry, looked up): as the sequence (Q8K4Z4 whole entry) above
Chain of Beta-2 adrenergic receptor (Bos taurus, UniProt Q28044) (Q28044 whole entry): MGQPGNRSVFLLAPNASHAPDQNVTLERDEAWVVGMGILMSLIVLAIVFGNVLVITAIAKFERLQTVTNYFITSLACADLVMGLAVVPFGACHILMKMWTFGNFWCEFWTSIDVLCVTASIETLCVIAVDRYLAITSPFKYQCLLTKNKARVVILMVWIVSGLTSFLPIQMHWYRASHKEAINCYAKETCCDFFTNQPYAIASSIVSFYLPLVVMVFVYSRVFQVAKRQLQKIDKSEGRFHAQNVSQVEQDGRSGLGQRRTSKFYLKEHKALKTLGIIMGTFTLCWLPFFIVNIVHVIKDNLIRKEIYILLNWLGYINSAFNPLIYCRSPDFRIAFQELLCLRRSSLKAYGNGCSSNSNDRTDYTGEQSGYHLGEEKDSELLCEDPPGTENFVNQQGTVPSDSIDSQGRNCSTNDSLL
T1 sequence (P08913 whole entry, looked up): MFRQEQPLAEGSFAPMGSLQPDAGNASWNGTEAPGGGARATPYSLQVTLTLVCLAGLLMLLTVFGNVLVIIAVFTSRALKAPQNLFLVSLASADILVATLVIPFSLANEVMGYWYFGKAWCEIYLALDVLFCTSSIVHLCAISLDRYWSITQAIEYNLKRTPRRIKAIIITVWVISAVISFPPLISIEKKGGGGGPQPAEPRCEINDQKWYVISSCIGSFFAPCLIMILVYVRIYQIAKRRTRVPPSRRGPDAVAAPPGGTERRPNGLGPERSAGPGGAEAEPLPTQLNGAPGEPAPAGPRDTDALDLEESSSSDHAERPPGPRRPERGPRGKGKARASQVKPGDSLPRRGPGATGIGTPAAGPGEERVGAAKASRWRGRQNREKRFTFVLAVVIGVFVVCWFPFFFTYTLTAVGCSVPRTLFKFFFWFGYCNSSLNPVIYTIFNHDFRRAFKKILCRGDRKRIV
T1 sequence (P18089 whole entry, looked up): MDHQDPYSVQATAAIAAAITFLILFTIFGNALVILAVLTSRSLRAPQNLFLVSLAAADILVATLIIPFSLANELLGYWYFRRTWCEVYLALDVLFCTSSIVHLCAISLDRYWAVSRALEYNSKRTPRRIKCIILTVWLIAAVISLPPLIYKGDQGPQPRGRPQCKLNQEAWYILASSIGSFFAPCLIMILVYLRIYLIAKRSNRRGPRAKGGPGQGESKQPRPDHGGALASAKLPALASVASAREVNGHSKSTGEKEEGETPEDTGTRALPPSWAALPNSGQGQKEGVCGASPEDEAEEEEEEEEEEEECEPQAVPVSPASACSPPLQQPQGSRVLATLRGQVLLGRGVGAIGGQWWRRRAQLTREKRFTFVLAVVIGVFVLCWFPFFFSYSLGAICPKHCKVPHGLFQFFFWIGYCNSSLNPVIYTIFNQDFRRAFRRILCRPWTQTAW
T1 sequence (P18825 whole entry, looked up): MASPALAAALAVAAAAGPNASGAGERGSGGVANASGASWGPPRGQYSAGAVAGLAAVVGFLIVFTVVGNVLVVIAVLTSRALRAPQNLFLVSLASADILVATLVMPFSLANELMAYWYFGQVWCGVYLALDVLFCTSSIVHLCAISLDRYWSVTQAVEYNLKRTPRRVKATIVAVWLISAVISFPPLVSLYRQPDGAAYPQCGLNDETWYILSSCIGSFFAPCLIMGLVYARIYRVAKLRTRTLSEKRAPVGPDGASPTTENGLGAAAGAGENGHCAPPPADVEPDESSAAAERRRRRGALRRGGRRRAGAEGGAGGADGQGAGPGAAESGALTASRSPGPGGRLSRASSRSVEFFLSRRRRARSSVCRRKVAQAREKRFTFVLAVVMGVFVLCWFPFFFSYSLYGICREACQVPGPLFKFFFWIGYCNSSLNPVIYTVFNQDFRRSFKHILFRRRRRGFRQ
Chain of Beta-1 adrenergic receptor (Cavia porcellus, UniProt B0FL73) (B0FL73 whole entry): as the sequence (B0FL73 1-467) above

Take `CC(C)NCC1OCCc2cc(O)c(O)cc21` (stereo unspecified): the Ki amounted to 1.49 µM in assay [1], 4.9 µM in [5], 26 µM in assay [7] and 4.12 µM in [8]. Moreover, in [2], the IA turned out to be 0.72. For the same compound, the half-maximal inhibitory concentration (IC50) in assay [3] is 33.9 µM; in assay [4] it was 5.5 µM. For the same compound, in assay [6], the pD2 is 4.56.

In the case of `NCC1OCCc2cc(O)c(O)cc21` (stereo unspecified), the Ki turned out to be 3.45 µM in [1], 28.8 µM in assay [5], 60.3 µM in assay [7] and 1.28 µM in assay [8]. Further, the IA came out at 0.73 in [2] and 0.42 in assay [9]. Also, the IC50 in [3] was 6.76 µM; in [4] it was 30.2 µM. The pD2 in assay [10] is 3.97; in assay [6], 5.45.

On to `NC[C@H](O)c1ccc(O)c(O)c1`, for which the IA in [2], in assay [9], in assay [12] and in [13] was 1 throughout. For the same compound, the pD2 in assay [11] worked out at 6.32; in [10] it was 5.12; in assay [6], 6.56; in assay [14] it was 6.03.

For `CC(C)NCC(O)c1ccc(O)c(O)c1` (stereo unspecified), the figures for the IA in assay [9] and in [13] were 0.83 and 1, respectively.

Take `CC(C)NCC1OCCc2c1ccc(O)c2O` (stereo unspecified): the inhibitory constant (Ki) in [1] is 28.8 µM; in [5], 14.9 µM; in [7], 21.5 µM; in assay [8] it was 1.78 µM. The IA in assay [2] was determined as 1. The same compound showed an IC50 in [3] of more than 316 µM. Moreover, the pD2 was 5.26 in [6] and less than 3.5 in assay [14]. In addition, the “-Log IC50” value in [15] is less than 3.5.

Regarding `NCC1OCCc2c1ccc(O)c2O` (stereo unspecified), the Ki in [1] is 40.3 µM; in assay [5], 49.9 µM; in assay [7], 42.2 µM; in [8], 0.0074 µM. The IA worked out at 1 in [2] and 1.03 in assay [9]. Besides, the figures for the IC50 in assay [3] and in [4] were 66.1 µM and more than 316 µM, respectively. This compound returned a pD2 in assay [10] of 4.69.

Values taken from ChEMBL document CHEMBL1126851, “Conformationally restrained analogs of sympathomimetic catecholamines. Synthesis, conformational analysis, and adrenergic activity of isochroman derivatives” (J Med Chem, 1993).
